Assay results as given in patent publication US20220062371A1, “LIGAND-DRUG-CONJUGATES AS SUBSTRATES FOR SELECTIVE CLEAVAGE BY THE EXOPEPTIDASE ACTIVITY OF CATHEPSIN B” (DEBIOPHARM RESEARCH & MANUFACTURING S.A., priority 2017, published 2022).
Non-standard residues stand in square brackets, D forms with d. Residues, ends and D or L forms follow the SMILES beside them. Groups on a side chain read outwards from the residue. *: point of attachment. DM1Mal(CH2)2CO = COc1cc2cc(c1Cl)N(C)C(=O)C[C@H](OC(=O)[C@H](C)N(C)C(=O)CCSC1CC(=O)N(CCC(=O)*)C1=O)[C@]1(C)O[C@H]1[C@H](C)[C@@H]1C[C@@](O)(NC(=O)O1)[C@H](OC)/C=C/C=C(\C)C2; X2 = CC(=O)N[C@@H](CSC1CC(=O)N(CCC(=O)*)C1=O)C(=O)O; Dolaproine = CO[C@@H]([C@@H]1CCCN1)[C@@H](C)C(=O)O; Dil = CC[C@H](C)[C@H](NC)[C@@H](CC(=O)O)OC; NMe2Val = CC(C)[C@@H](C(=O)*)N(C)C; Cit = NC(=O)NCCC[C@H](N)C(=O)O; PEG4 = NCCOCCOCCOCCOCCC(=O)O

Biological target: T1, recombinant human Cathepsin B (Homo sapiens, UniProt P07858)
T1 construct: purchased R&D Systems (Bio-Techne AG) 953-CY-010
Test: Recombinant human Cathepsin B-induced cleavage (in vitro enzymatic cleavage assay, UHPLC-MS/MS)
Format: biochemical
Conditions: for half-life at 10 μM: human, 10 μM test compound, Cathepsin B 2 μg/mL, 25 mM MES buffer pH 5.0, 37° C., read-out: T1/2 Compound; for Ratio (T1/2 Compound/T1/2 Reference): reference Cys-MC-Val-Cit-PABC-MMAF; for cleavage rate compared to reference PABC compound (times faster): versus Cys-MC-Val-Cit-PABC-MMAF
Experimental: Cat B-induced cleavage of the compounds of the present invention was evaluated according to the in vitro enzymatic cleavage assay using recombinant human Cathepsin B and UHPLC-MS/MS analysis as described below.
Reference compounds Cys-MC-Val-Cit-PABC-MMAF and MMAF were used as positive controls.
The in vitro enzymatic assay was conducted at 37° C. with the test compounds at a concentration of 10 μM (2.5 μM when the test compound is an antibody-drug conjugate) in the presence of activated recombinant human Cathepsin B enzyme at 2 μg/mL in a 25 mM MES buffer pH 5.0. The enzymatic cleavage reaction was stopped for each defined time point by mixing an equal volume of acetonitrile+0.1% FA containing an internal standard (warfarine at 8 μM).
Analysis was conducted using a Waters Acquity UPLC System coupled to a Waters Xevo TQ triple quad mass spectrometer. UHPLC was conducted depending on the test compounds with a BEH C8 1.7 μm 100×2.1 mm or BEH C18 1.7 μm 50×2.1 mm or HSS T3 1.7 μm 50×2.1 mm columns heated at 45° C. or 50° C. and fitted with 2 μm insert filter pre-columns (available from Waters), and solvent systems A1 (H2O+0.1% FA) and B1 (acetonitrile+0.1% FA) at a flow rate of 0.6 mL/min and a 10-95% gradient of B1 over 1.9 min.
MS/MS was performed using electrospray ionization (ESI) interface in positive mode and specific MRM transitions for each tested compound.

Molecule | half-life at 10 μM [min] | Ratio (T1/2 Compound/T1/2 Reference) | cleavage rate compared to reference PABC compound (times faster) | Cat B-induced cleavage, in words
CC[C@H](C)[C@@H]([C@@H](CC(=O)N1CCC[C@H]1[C@H](OC)[C@@H](C)C(=O)N[C@@H](Cc1ccccc1)C(=O)NCCCC[C@H](NC(=O)[C@H](CCCNC(=N)N)NC(=O)[C@H](CCCCNC(=O)CCN1C(=O)CC(SCCC(=O)N(C)[C@@H](C)C(=O)O[C@H]2CC(=O)N(C)c3cc(cc(OC)c3Cl)C/C(C)=C/C=C/[C@@H](OC)[C@@]3(O)C[C@H](OC(=O)N3)[C@@H](C)[C@@H]3O[C@@]23C)C1=O)NC(=O)[C@H](CCCNC(=N)N)NC(=O)[C@H](Cc1ccccc1)NC(=O)CCOCCOCCOCCOCCNC(=O)CCN1C(=O)CC(SC[C@H](NC(C)=O)C(=O)O)C1=O)C(=O)N[C@@H](Cc1ccccc1)C(=O)O)OC)N(C)C(=O)[C@@H](NC(=O)[C@H](C(C)C)N(C)C)C(C)C (stereo partly drawn) [Compound 30, Ac-Cys-Mal-PEG4-Phe-Arg-Lys(Mal-DM1)-Arg-Lys(AF)-Phe-OH] ({X2-PEG4}-FRK(DM1Mal(CH2)2CO)RK([Phe-Dolaproine-Dil-Val-NMe2Val])F-OH) | 1.1 | 0.07 | more than 10 fold | 
CC[C@H](C)[C@@H]([C@@H](CC(=O)N1CCC[C@H]1[C@H](OC)[C@@H](C)C(=O)N[C@@H](Cc1ccccc1)C(=O)N[C@@H](CCCNC(N)=O)C(=O)N[C@@H](CCCCNC(=O)CCN1C(=O)CC(SCCC(=O)N(C)[C@@H](C)C(=O)O[C@H]2CC(=O)N(C)c3cc(cc(OC)c3Cl)C/C(C)=C/C=C/[C@@H](OC)[C@@]3(O)C[C@H](OC(=O)N3)[C@@H](C)[C@@H]3O[C@@]23C)C1=O)C(=O)N[C@@H](Cc1ccccc1)C(=O)N[C@@H](CCCCNC(=O)CCOCCOCCOCCOCCNC(=O)CCN1C(=O)CC(SC[C@H](NC(C)=O)C(=O)O)C1=O)C(=O)N[C@@H](Cc1ccccc1)C(=O)O)OC)N(C)C(=O)[C@@H](NC(=O)[C@H](C(C)C)N(C)C)C(C)C (stereo partly drawn) [Compound 31, AF-Cit-Lys(Mal-DM1)-Phe-Lys(PEG4-Mal-Cys-Ac)-Phe-OH] (NMe2Val-V[Dil][Dolaproine]F[Cit]K(DM1Mal(CH2)2CO)FK([PEG4-X2])F-OH) | 1.08 | 0.08 | more than 10 fold | 
CC[C@H](C)[C@@H]([C@@H](CC(=O)N1CCC[C@H]1[C@H](OC)[C@@H](C)C(=O)N[C@@H](Cc1ccccc1)C(=O)N[C@@H](CCCNC(N)=O)C(=O)N[C@@H](CCCCn1cc(COC(=O)NCCCC[C@H](NC(=O)CCOCCOCCOCCOCCOCCNC(=O)CCN2C(=O)CC(SC[C@H](NC(C)=O)C(=O)O)C2=O)C(=O)NCCOCCOCCOCCOCCOCCC(=O)N[C@@H](CCCCNC(=O)OCc2cn(CCCC[C@H](NC(=O)[C@H](CCCNC(N)=O)NC(=O)[C@H](Cc3ccccc3)NC(=O)[C@H](C)[C@@H](OC)[C@@H]3CCCN3C(=O)C[C@@H](OC)[C@H]([C@@H](C)CC)N(C)C(=O)[C@@H](NC(=O)[C@H](C(C)C)N(C)C)C(C)C)C(=O)N[C@@H](Cc3ccccc3)C(=O)O)nn2)C(=O)NCC(N)=O)nn1)C(=O)N[C@@H](Cc1ccccc1)C(=O)O)OC)N(C)C(=O)[C@@H](NC(=O)[C@H](C(C)C)N(C)C)C(C)C (stereo partly drawn) [Compound 32, Ac-Cys-Mal-[PEG5-Lys(AF-Cit-Lys(Y)-Phe-OH)]2-Gly-NH2] | 0.98 | 0.06 | ~20 fold | 
Arg-PEG4-Phe-Arg-Glu(Sar-OCPT)-Arg-Phe-Arg-OH [Compound 16] |  |  |  | rapidly cleaved
Arg-PEG4-Phe-Arg-[Glu(Sar-OCPT)-Phe]2-OH [Compound 17] |  |  |  | rapidly released
Arg-PEG4-[Phe-Arg-Glu(Sar-OCPT)-Arg]2-OH [Compound 18] |  |  |  | rapidly released
